Columns and labels:
Type in all cases: binding
[1] = biological target: T1, IPR (isopiperitenone reductase) (Mentha x piperita, UniProt Q6WAU1); assay: X-ray crystal structure of complex; conditions: non-substrate, bound in a non-active conformation; with NADP+
T1 construct: recombinant; scavenged NADP+ from host cells; catalytic Glu238; construct details only in supplement

[2] = biological target: T1, IPR (isopiperitenone reductase); assay: X-ray crystal structure; conditions: oxidised cofactor scavenged from expression host
[3] = biological target: T2, MNMR ((−)‐menthone:(+)‐neomenthol reductase) (Mentha x piperita, UniProt Q06ZW2); assay: X-ray crystal structure, crystal soaking; conditions: crystals soaked with NADP+
T2 construct: recombinant; catalytic Tyr244; construct details only in supplement
T2 sequence (Q06ZW2 entry or part of it): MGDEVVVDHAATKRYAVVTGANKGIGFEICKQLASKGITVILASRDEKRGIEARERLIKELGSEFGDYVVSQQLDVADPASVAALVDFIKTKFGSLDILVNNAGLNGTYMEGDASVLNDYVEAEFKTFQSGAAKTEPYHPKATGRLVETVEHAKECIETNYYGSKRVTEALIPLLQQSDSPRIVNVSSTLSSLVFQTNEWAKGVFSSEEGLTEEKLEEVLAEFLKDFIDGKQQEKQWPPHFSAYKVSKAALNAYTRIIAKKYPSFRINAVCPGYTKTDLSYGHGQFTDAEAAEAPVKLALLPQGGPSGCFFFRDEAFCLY

T1 sequence (Q6WAU1 whole entry): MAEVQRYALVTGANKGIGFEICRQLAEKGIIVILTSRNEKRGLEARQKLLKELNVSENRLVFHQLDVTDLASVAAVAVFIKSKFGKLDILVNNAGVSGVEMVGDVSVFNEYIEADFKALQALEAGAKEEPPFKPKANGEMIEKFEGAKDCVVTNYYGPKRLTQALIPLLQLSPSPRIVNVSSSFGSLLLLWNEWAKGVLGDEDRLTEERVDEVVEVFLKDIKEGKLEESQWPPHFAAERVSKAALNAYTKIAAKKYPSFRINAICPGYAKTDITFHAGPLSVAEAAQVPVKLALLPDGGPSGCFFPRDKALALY

SMILES: CC1=C(C=O)C(C)(C)CCC1 [β‐cyclocitral]
- X-ray crystal structure of complex [1]: The IPR–β‐cyclocitral co‐crystal structure shows the ligand binds in a non‐active conformation

SMILES: NC(=O)c1ccc[n+]([C@@H]2O[C@H](COP(=O)(O)OP(=O)(O)OC[C@H]3O[C@@H](n4cnc5c(N)ncnc54)[C@H](OP(=O)(O)O)[C@@H]3O)[C@@H](O)[C@H]2O)c1 [NADP+]
- X-ray crystal structure [2]: presence of clear density in the F0−Fc map for NADP^+
- X-ray crystal structure, crystal soaking [3]: A coenzyme‐bound MNMR structure was obtained by soaking crystals with NADP^+

From publication PMC4988501, “Pinpointing a Mechanistic Switch Between Ketoreduction and “Ene” Reduction in Short‐Chain Dehydrogenases/Reductases” (Angewandte Chemie (International Ed. in English), 2016)
